Source: patent US11707441B2, “Safinamide for treating myotonia” (Zambon S.P.A., priority 2018, dated 2023)
Like-named read-outs stand apart in the source and are kept apart here.

Legend:
[1] = test system: sarcolemma excitability in single myofibers of isolated Extensor Digitorum Longus (EDL) muscles; experiment: In vitro antimyotonic activity in rat EDL skeletal muscle fibers, 9-AC-induced myotonia-like condition, two-microelectrode current clamp; assay type: cell-based; conditions: for reduction of N spikes (maximum number of spikes): vs 9-AC alone
Experimental: The antimyotonic activity of safinamide was assessed by recording the sarcolemma excitability in single myofibers of isolated Extensor Digitorum Longus (EDL) muscles using two-microelectrode current-clamp technique. The in-vitro model of myotonia congenita was obtained by incubating rat EDL muscles with 9-anthracene carboxylic acid (9-AC) (Conte Camerino et al., Muscle Nerve. 1989; 12(11):898-904. Altamura et al., Br J Pharmacol. 2018; 175(10):1770-1780). The increase of sarcolemma excitability caused by 9-AC through the blockade of skeletal muscle ClC-1 chloride channels mimicked the abnormal action potential firing observed in patients affected by myotonia congenita.
EDL muscles were dissected out from male Wistar rats under deep anaesthesia (80 mg/kg ip ketamine and 10 mg/kg ip xylazine). Muscles were placed in a 25 ml muscle bath maintained at 30° C. and perfused with saline (gassed with 95% O2 and 5% CO2; pH=7.2-7.3). By means of standard two-intracellular-microelectrode technique, the resting membrane potential and excitability characteristics (number of spikes) of muscle fibres were measured in current clamp mode. The excitability characteristics of the sampled fibres were determined by recording the intracellular membrane potential response to a square-wave constant (100 ms) current pulse. In each fibre, the membrane potential was set by a steady holding current to −80 mV before passing the depolarizing pulses. By increasing the amplitude of the pulse we were able to elicit the first single action potential and by further increasing current intensity in the same fibre, the maximum number of elicitable spikes (N spikes) was measured (Pierno et al., Br J Pharmacol. 2006; 149(7):909-19).
Unwarranted muscle contractions were hampered with dantrolene sodium (2 mg/1). Cell excitability parameters (N spikes) was measured before (control) and after 50 μM 9-AC alone and concomitant application of safinamide at six different concentrations (0.1 to 30 μM). In these experimental conditions, safinamide methanesulfonate was used and dissolved as stock solution (10 mM) in distilled water, then it was diluted to the final concentrations in the muscle bath solution. One animal was used to test two concentrations of safinamide: one concentration in each EDL muscle.

[2] = test system: rat model of myotonia congenita; experiment: In vivo antimyotonic activity in 9-AC-induced rat model of myotonia congenita, time of righting reflex (TRR)
Experimental: Myotonia was induced in rats by intraperitoneal injection of 9-AC, which is a known blocker of skeletal muscle ClC-1 chloride channels (Conte Camerino et al., Muscle Nerve. 1989; 12(11):898-904. Altamura et al., Br J Pharmacol. 2018; 175(10):1770-1780). Male Wistar rats (250-300 g) were used. Experiments were performed in accordance with the Guide for the Care and Use of Laboratory Animals and with Italian Health Department approval n. 194/2018-PR. Experimenters were blinded to the treatments. In this animal model, 9-AC mimics in vivo myotonia congenita, a human disease due to loss-of-function mutations in CLCN1 gene encoding ClC-1 channels. […] Nevertheless, the animals remained fully conscious and alert. Breathing was normal. When hearing an unexpected noise, the animals reacted by a jump on site but had great difficulties to move away due to muscle stiffness. Myotonia was evaluated by measuring the time of righting reflex (TRR, the time needed for the rat placed in supine position to turn back on its four paws). In rats, before 9-AC injections the TRR was less than 0.5 s. […] Then the TRR decreased gradually over time, being close to 1 s, 3 h after 9-AC. An anti-myotonic drug is expected to counteract the 9-AC-induced TRR prolongation. The TRR was evaluated about 10 minutes before 9-AC (Time 0) and 10, 37, 67, 127, and 187 min after 9-AC (30 mg/kg i.p.). The TRR measured at each time point was the mean of 7 measurements spaced by 1 min (to limit warm-up effect). Safinamide methanesulfonate (10 and 30 mg/kg as free base) or vehicle were administrated by oral gavage to the rats 17 min after 9-AC injection. 9-AC and safinamide methanesulfonate were dissolved in bicarbonate and 0.9% NaCl solution, respectively. To allow comparison between rats, the TRR measured at each time point was normalized as a function of TRR measured 10 min after 9AC injection in the same rat. Then average data were calculated for each dosage as the mean±S.E.M. Statistical analysis was performed using one-way analysis of variance (ANOVA) followed by ad-hoc Bonferroni's t test. […] In this in vivo model the dose-response curve of safinamide methanesulfonate at increasing doses (0.3, 1, 3, 10 and 30 mg/kg as free base) was also studied. To allow comparison between rats, the TRR measured at each time point was normalized as a function of TRR measured 10 min after 9AC injection in the same rat. Then average data were calculated for each drug/dosage as the mean±S.E.M. Statistical analysis will be performed using one-way analysis of variance (ANOVA) followed by ad-hoc Bonferroni's t test.

hNav1.4 point mutations = experiment: Potency in cells transfected with hNav1.4 point mutations compared to wild type; assay type: cell-based, human
Experimental: The effect of safinamide was evaluated on some hNav1.4 point mutations located in the inactivation site. Human skeletal muscle subtype of voltage-gated sodium channels (hNav1.4), either wild-type or myotonic mutants, were transiently transfected in HEK293T cells with the calcium-phosphate co-precipitation method. Whole-cell sodium currents (INa) were recorded at room temperature (20-22° C.) using Axon conventional patch-clamp hardware (Molecular Devices, USA). Voltage clamp protocols and data acquisition were performed with pCLAMP software (Axon Instruments). Bath solution contained (mM) 150 NaCl, 4 KCl, 2 CaCl2, 1 MgCl2, 5 Na-HEPES, and 5 glucose (pH 7.4). The pipette solution contained (in mM) 120 CsF, 10 CsCl, 10 NaCl, 5 EGTA, and 5 Cs-HEPES (pH 7.2). Patch pipettes made with Corning 7052 glass (King glass, USA) had resistance ranging from 1 to 3 MΩ. […] The concentration-response curves of safinamide were produced by obtaining the peak current amplitude measured in the presence of drug (IDRUG), normalized to the peak current amplitude measured in the same cell before drug application (ICTRL), as a function of drug concentration [(DRUG)]. […] The IC50 values were determined at resting membrane potential (tonic block: -120 mV at 0.1 Hz) and after repetitive depolarizing pulses to -20 mV at 10 Hz (use and frequency-dependent block). […]

Wild Type hNav1.4 = target: T1, Wild Type hNav1.4 (Homo sapiens, UniProt P35499); experiment: Whole-cell patch clamp sodium current inhibition in transfected HEK293T cells, wild type; assay type: cell-based
T1 construct: expressed in transfected cells; host or cells: HEK293T
Experimental: (§1) Human skeletal muscle subtype of voltage-gated sodium channels (hNav1.4), either wild-type or myotonic mutants, were transiently transfected in HEK293T cells with the calcium-phosphate co-precipitation method. Whole-cell sodium currents (INa) were recorded at room temperature (20-22° C.) using Axon conventional patch-clamp hardware (Molecular Devices, USA). Voltage clamp protocols and data acquisition were performed with pCLAMP software (Axon Instruments). Bath solution contained (mM) 150 NaCl, 4 KCl, 2 CaCl2, 1 MgCl2, 5 Na-HEPES, and 5 glucose (pH 7.4). The pipette solution contained (in mM) 120 CsF, 10 CsCl, 10 NaCl, 5 EGTA, and 5 Cs-HEPES (pH 7.2). […]
(§2) Inhibition of hNav1.4 channels by safinamide was evaluated by measuring the reduction of INa elicited from a holding potential (HP) of −120 to −30 mV at frequency stimulations of 0.1 and 10 Hz. The concentration-response curves of safinamide were produced by obtaining the peak current amplitude measured in the presence of drug (IDRUG), normalized to the peak current amplitude measured in the same cell before drug application (ICTRL), as a function of drug concentration [(DRUG)]. […] The IC50 values were determined at resting membrane potential (tonic block: −120 mV at 0.1 Hz) and after repetitive depolarizing pulses to −20 mV at 10 Hz (use and frequency-dependent block). […]

hNav1.4 P1158L = target: T2, hNav1.4 P1158L (Homo sapiens, UniProt P35499, P1158L); experiment: Whole-cell patch clamp sodium current inhibition in transfected HEK293T cells, P1158L mutant; assay type: cell-based
T2 construct: expressed in transfected cells; host or cells: HEK293T
Experimental: as §1, §2

hNav1.4 V1293I = target: T3, hNav1.4 V1293I (Homo sapiens, UniProt P35499, V1293I); experiment: Whole-cell patch clamp sodium current inhibition in transfected HEK293T cells, V1293I mutant; assay type: cell-based
T3 construct: expressed in transfected cells; host or cells: HEK293T
Experimental: p.V1293I: the V1293I mutation is associated to various phenotypes, from sodium channel myotonia to paramyotonia congenita+hyperkalemic periodic paralysis (Koch et al., 1995).
as §1, with “Instruments).” for “Instruments). Bath solution contained (mM) 150 NaCl, 4 KCl, 2 CaCl2, 1 MgCl2, 5 Na-HEPES, and 5 glucose (pH 7.4). The pipette solution contained (in mM) 120 CsF, 10 CsCl, 10 NaCl, 5 EGTA, and 5 Cs-HEPES (pH 7.2).”
as §2

hNav1.4 F1298C = target: T4, hNav1.4 F1298C (Homo sapiens, UniProt P35499, F1298C); experiment: Whole-cell patch clamp sodium current inhibition in transfected HEK293T cells, F1298C mutant; assay type: cell-based
T4 construct: expressed in transfected cells; host or cells: HEK293T
Source text: p.F1298C: this mutation was found in a person, presenting with stiffness in facial, upper and lower limb muscles, mainly after contraction (Farinato et al., 2019). Symptoms worsened with cold and myotonia was reported as painful. The patient noticed a mild improvement of myotonia with exercise.
Human skeletal muscle subtype of voltage-gated sodium channels (hNav1.4), either wild-type or myotonic mutants, were transiently transfected in HEK293T cells with the calcium-phosphate co-precipitation method. Whole-cell sodium currents (INa) were recorded at room temperature (20-22° C.) using Axon conventional patch-clamp hardware (Molecular Devices, USA). […]
as §2

hNav1.4 I1310N = hNav1.4 I1310N (Homo sapiens, UniProt P35499, I1310N); experiment: Whole-cell patch clamp sodium current inhibition in transfected HEK293T cells, I1310N mutant; assay type: cell-based
Experimental: p.I1310N: this mutation has been found in 5 related of a French kindred, and is associated to sodium channel myotonia (Farinato et al., 2019).
as §1, with “7.4).” for “7.4). The pipette solution contained (in mM) 120 CsF, 10 CsCl, 10 NaCl, 5 EGTA, and 5 Cs-HEPES (pH 7.2).”
as §2

[3] = HP -120 mV, 0.1 Hz, read-out: IC50 ± SE Tonic block at 0.1 Hz
[4] = repetitive depolarizing pulses, 10 Hz, read-out: IC50 ± SE Use and frequency-dependent block at 10 Hz

T3 sequence (P35499 whole entry V1293I): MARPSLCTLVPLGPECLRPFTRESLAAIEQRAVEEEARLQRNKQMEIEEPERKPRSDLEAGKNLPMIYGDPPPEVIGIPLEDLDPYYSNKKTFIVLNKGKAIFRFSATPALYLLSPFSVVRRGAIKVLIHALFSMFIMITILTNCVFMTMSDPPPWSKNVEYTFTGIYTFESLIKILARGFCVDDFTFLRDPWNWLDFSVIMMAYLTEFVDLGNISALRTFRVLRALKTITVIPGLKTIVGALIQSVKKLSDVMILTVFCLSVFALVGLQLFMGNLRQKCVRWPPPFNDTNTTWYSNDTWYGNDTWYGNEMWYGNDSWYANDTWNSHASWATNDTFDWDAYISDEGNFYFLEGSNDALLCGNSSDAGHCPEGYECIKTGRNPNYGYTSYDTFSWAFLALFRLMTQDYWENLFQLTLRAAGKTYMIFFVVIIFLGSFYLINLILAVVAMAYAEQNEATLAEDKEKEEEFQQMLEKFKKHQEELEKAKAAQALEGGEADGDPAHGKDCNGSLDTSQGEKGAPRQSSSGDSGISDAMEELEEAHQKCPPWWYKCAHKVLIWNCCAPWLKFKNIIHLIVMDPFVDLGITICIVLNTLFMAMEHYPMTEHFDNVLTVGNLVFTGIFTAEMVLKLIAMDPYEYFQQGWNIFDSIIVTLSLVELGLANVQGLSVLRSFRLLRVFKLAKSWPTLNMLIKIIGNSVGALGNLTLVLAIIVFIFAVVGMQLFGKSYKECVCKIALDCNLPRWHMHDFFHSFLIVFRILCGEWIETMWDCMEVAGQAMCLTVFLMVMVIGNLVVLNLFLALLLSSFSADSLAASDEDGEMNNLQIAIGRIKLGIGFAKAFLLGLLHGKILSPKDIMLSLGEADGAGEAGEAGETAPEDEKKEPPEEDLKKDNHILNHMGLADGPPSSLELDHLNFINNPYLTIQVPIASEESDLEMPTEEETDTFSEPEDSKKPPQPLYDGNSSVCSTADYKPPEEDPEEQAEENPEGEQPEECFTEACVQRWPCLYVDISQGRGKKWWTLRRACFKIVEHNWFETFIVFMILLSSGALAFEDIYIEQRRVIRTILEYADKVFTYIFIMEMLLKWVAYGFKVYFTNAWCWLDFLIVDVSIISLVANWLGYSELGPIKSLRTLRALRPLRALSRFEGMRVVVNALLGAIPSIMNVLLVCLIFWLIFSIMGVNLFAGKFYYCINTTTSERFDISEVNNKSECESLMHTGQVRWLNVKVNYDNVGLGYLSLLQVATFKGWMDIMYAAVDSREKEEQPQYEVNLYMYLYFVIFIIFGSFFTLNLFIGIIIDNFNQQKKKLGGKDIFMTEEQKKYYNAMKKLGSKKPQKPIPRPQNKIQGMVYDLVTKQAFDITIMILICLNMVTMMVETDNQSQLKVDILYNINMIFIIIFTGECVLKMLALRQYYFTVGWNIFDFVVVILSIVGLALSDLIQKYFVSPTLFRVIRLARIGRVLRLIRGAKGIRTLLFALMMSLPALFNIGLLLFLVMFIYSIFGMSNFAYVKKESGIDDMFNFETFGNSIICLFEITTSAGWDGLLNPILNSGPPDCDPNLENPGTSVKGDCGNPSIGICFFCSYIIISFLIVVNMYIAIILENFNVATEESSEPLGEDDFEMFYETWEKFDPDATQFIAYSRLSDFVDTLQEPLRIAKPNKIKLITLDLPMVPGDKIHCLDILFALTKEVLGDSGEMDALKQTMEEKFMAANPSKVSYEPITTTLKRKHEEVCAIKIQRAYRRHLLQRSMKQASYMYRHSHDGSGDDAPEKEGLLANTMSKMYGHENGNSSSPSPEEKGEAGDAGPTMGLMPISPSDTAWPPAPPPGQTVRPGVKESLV
Sequence of hNav1.4 I1310N (P35499 whole entry I1310N): as the sequence (P35499 whole entry V1293I) above, with I1293V, I1310N counted along it
T2 sequence (P35499 whole entry P1158L): as the sequence (P35499 whole entry V1293I) above, with P1158L, I1293V counted along it
T1 sequence (P35499 whole entry): as the sequence (P35499 whole entry V1293I) above, with I1293V counted along it
T4 sequence (P35499 whole entry F1298C): as the sequence (P35499 whole entry V1293I) above, with I1293V, F1298C counted along it

O=C(O)c1c2ccccc2cc2ccccc12 [9-AC, 9-anthracene carboxylic acid]
increase of N spikes ([1]; 50 μM 9-AC alone vs control): 60% | time of righting reflex (TRR) ([2]; 10 min after 9-AC injection): about 2 s | time of righting reflex (TRR) ([2]; 30 min after 9-AC injection): about 4 s | time of righting reflex (TRR) ([2]; 3 h after 9-AC injection): ~1 s

Cc1cccc(C)c1OCC(C)N (centres unmarked) [mexiletine]
potency relative to safinamide in the same test (fold less potent) ([2]; TRR, 9-AC rat model): about 6 fold | potency in hNav1.4 point mutations transfected cells (hNav1.4 point mutations): significantly decreases

C[C@H](NCc1ccc(OCc2cccc(F)c2)cc1)C(N)=O [safinamide, (2S)-2-[[4-[(3-fluorophenyl)methoxy]phenyl]methylamino]propanamide]
IC50 ([1]; Rattus norvegicus, fit of concentration-response curve, ±SE of the fit, 50 μM 9-AC, read-out: IC50 (concentration able to reduce by 50% the 9-AC effect)): 13.4 ± 2.4 µM | reduction of N spikes (maximum number of spikes) ([1]; safinamide 1 μM with 50 μM 9-AC): 22±6% | reduction of N spikes (maximum number of spikes) ([1]; safinamide 5 μM with 50 μM 9-AC): 35±5% | reduction of N spikes (maximum number of spikes) ([1]; safinamide 10 μM with 50 μM 9-AC): 42±5% | reduction of N spikes (maximum number of spikes) ([1]; safinamide 30 μM with 50 μM 9-AC): 60±6% | reversibility of antimyotonic effect upon wash-out ([1]; wash-out, 9-AC 50 μM): reversible | reduction of TRR ([2]; 37 min after 9-AC, 3, 10 and 30 mg/kg oral): significant | maximal effect on TRR prolongation ([2]; 67 min, dose of 10-30 mg/kg oral): 66% | TRR inhibition ([2]; 67 min after 9-AC (peak effect), also with 1 mg/kg oral): significant | TRR inhibition ([2]; 127 min after 9-AC, only 10 and 30 mg/kg oral): significant inhibition | ED50 ([2]; Rattus norvegicus, 67 min, dose-response curve at 67 min, oral, read-out: ED50 (effective dose in inhibiting by 50% TRR prolongation)): 1.2 mg/kg | effect on 9-AC-induced TRR prolongation ([2]; at peak effect (37 and 67 min after 9-AC), oral gavage): dose-dependently and significantly counteracted | duration of effect on TRR prolongation ([2]; oral gavage, 17 min after 9-AC): ≤ 120 min | IC50 (Wild Type hNav1.4; [3]): 160 ± 18 µM | IC50 (Wild Type hNav1.4; [4]): 33 ± 4 µM | IC50 (hNav1.4 P1158L; [3]): 148 ± 13 µM | IC50 (hNav1.4 P1158L; [4]): 34 ± 3 µM | IC50 (hNav1.4 V1293I; [3]): 171 ± 19 µM | IC50 (hNav1.4 V1293I; [4]): 47 ± 5 µM | IC50 (hNav1.4 F1298C; [3]): 173 ± 12 µM | IC50 (hNav1.4 F1298C; [4]): 83 ± 2 µM | IC50 (hNav1.4 I1310N; [3]): 170 ± 26 µM | IC50 (hNav1.4 I1310N; [4]): 46 ± 7 µM
